Measurements: article PMC4246094, “Exchange Factor EFA6R Requires C-terminal Targeting to the Plasma Membrane to Promote Cytoskeletal Rearrangement through the Activation of ADP-ribosylation Factor 6 (ARF6)” (The Journal of Biological Chemistry, 2014)

Target: T1, EFA6R (GFP-EFA6R), isoform B (Homo sapiens, UniProt Q9NYI0)
T1 construct: gene PSD3; full-length isoform B, N-terminal GFP tag (pEGFPC2), transiently expressed in COS7 cells, lysate used; endogenous protein runs at 56 kDa
Experiment: competition pulldown: displacement from biotinylated PI-avidin beads by soluble diC8 lipid, immunoblot densitometry
Settings: concentration blocking 50% of binding to PI 4,5-P2 beads (in the methods PI 3,4-P2 beads); cell lysate, pH 7.4, 150 mM NaCl, 0.5% Nonidet P-40, 4 °C; PH domain; read-out: EC50 (the source's name)

T1 sequence (Q9NYI0 1-513 isoform Q9NYI0-3 limits assumed): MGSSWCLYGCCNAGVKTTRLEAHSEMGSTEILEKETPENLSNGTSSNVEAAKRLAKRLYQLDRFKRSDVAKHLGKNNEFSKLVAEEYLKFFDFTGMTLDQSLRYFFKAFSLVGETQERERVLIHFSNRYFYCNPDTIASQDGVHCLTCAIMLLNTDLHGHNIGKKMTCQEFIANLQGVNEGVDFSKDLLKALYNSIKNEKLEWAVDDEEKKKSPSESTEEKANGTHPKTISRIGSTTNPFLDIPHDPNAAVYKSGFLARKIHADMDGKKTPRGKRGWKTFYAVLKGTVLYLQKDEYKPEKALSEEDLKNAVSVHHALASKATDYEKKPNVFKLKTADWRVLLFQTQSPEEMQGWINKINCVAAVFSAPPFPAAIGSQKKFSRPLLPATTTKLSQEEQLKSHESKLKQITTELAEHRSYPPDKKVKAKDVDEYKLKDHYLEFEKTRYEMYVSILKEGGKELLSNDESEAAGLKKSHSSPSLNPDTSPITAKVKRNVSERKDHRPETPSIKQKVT

| SMILES | IC50 [µM] |
| --- | --- |
| CCCCCCCC(=O)OC[C@H](COP(=O)(O)O[C@H]1[C@H](O)[C@@H](OP(=O)(O)O)[C@H](OP(=O)(O)O)[C@@H](OP(=O)(O)O)[C@H]1O)OC(=O)CCCCCCC [PI 3,4,5-trisphosphate] | > 10 |
| CCCCCCCC(=O)OC[C@H](COP(=O)(O)O[C@@H]1[C@H](O)[C@H](O)[C@@H](OP(=O)(O)O)[C@H](OP(=O)(O)O)[C@H]1O)OC(=O)CCCCCCC [PI 4,5-P2] | 1.1 |
| CCCCCCCC(=O)OC[C@H](COP(=O)(O)O[C@H]1[C@H](O)[C@@H](O)[C@H](OP(=O)(O)O)[C@@H](OP(=O)(O)O)[C@H]1O)OC(=O)CCCCCCC [PI 3,4-P2] | > 10 |
| CCCCCCCC(=O)OC[C@H](COP(=O)(O)O[C@@H]1[C@H](O)[C@H](OP(=O)(O)O)[C@@H](O)[C@H](O)[C@H]1O)OC(=O)CCCCCCC [PI 3-phosphate] | > 10 |
